Biological target: T1, HCV-NS5b (Hepatitis C virus genotype 1b, UniProt Q9WMX2)
T1 construct: (His)6 (C); made in house; host or cells: XL-1 cells (E. coli), IPTG-inducible plasmid, nickel-NTA purification
Experiment: HCV-NS5b enzyme assay (incorporation of radiolabeled UTP)
Type: biochemical
Details: for inhibition at 33 µM: enzyme inhibition at compound concentration of 33 uM; for inhibition at 100 µM: read-out: % inh@100, enzyme inhibition at compound concentration of 100 uM
Outline: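 Percent inhibition, background-corrected against uninhibited control, was measured at 100 and 33 uM compound. Incorporation of [3H]-UTP (10 μM each NTP) into biotinylated HCV-template RNA, 37° C for 2 h, pH 7.5, scintillation proximity. Enzyme: C-terminally truncated (21 aa), His6-tagged NS5b from XL-1.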

| SMILES | inhibition at 33 µM [%] | inhibition at 100 µM [%] |
| --- | --- | --- |
| O=C(O)c1ccc2c(c1)nc(-c1ccc3nc(C(c4ccccc4)c4ccccc4)ccc3c1)n2C1CCCCC1 [Compound 457, 2-(2-benzhydryl-quinolin-6-yl)-1-cyclohexyl-1H-benzoimidazole-5-carboxylic acid] | 98.2 | 98.3 |
| CN(C)c1ccc(-c2nc3ccc(-c4nc5cc(C(=O)O)ccc5n4C4CCCCC4)cc3nc2-c2ccc(N(C)C)cc2)cc1 [Compound 458, 2-[2,3-Bis-(4-dimethylaminotphenyl)quinoxalin-6-yl]-1-cyclohexyl-1H-benzimidazole-5-carboxylic acid] | 100 | 104 |
| O=C(O)c1ccc2c(c1)nc(-c1ccc3nc(-c4ccc5c(c4)CCCC5)ccc3c1)n2C1CCCCC1 [Compound 459, 1-cyclohexyl-2-[2-(5,6,7,8-tetrahydro-naphthalen-2-yl)-quinolin-6-yl]-1H-benzoimidazole-5-carboxylic acid] | 99.5 | 99.8 |
| O=C(O)c1ccc2c(c1)nc(-c1ccc3nc(-c4c(O)ccc5ccccc45)ccc3c1)n2C1CCCCC1 [Compound 460, 1-cyclohexyl-2-[2-(2-hydroxy-naphthalen-1-yl)-quinolin-6-yl]-1H-benzoimidazole-5-carboxylic acid] | 101 | 102 |
| COCCOc1ccc(-c2ccccc2)c(-c2ccc3cc(-c4nc5cc(C(=O)O)ccc5n4C4CCCCC4)ccc3n2)c1 [Compound 461, 1-Cyclohexyl-2-{2-[4-(2-methoxy-ethoxy)-biphen-2-yl]-quinolin-6-yl}-1H-benzoimidazole-5-carboxylic acid] | 97.9 | 96.7 |
| Cc1c(OCc2ccccc2)ccc(-c2ccc3cc(-c4nc5cc(C(=O)O)ccc5n4C4CCCCC4)ccc3n2)c1O [Compound 462, 2-[2-(4-benzyloxy-2-hydroxy-3-methyl-phenyl)-quinolin-6-yl]-1-cyclohexyl-1H-benzoimidazole-5-carboxylic acid] | 98.2 | 101 |
| Cn1c2ccc(Cl)cc2c2cc(-c3ccc4cc(-c5nc6cc(C(=O)O)ccc6n5C5CCCCC5)ccc4n3)ccc21 [Compound 463, 2-[2-(6-chloro-9-methyl-9H-carbazol-3-yl)-quinolin-6-yl]-1-cyclohexyl-1H-benzoimidazole-5-carboxylic acid] | 96 | 97.2 |
| Cc1nn(-c2ccccc2)c(C)c1-c1ccc2cc(-c3nc4cc(C(=O)O)ccc4n3C3CCCCC3)ccc2n1 [Compound 464, 1-cyclohexyl-2-[2-(3,5-dimethyl-1-phenyl-1H-pyrazol-4-yl)-quinolin-6-yl]-1H-benzoimidazole-5-carboxylic acid] | 99.7 | 100 |
| O=C1COc2ccc(-c3ccc4cc(-c5nc6cc(C(=O)O)ccc6n5C5CCCCC5)ccc4n3)cc2N1 [Compound 465, 1-cyclohexyl-2-[2-(3-oxo-3,4-dihydro-2H-benzo[1,4]oxazin-6-yl)-quinolin-6-yl]-1H-benzoimidazole-5-carboxylic acid] | 98.8 | 101 |
| NNc1cc(-c2ccccc2)nc2ccc(-c3nc4cc(C(=O)O)ccc4n3C3CCCCC3)cc12 [Compound 466, 1-Cyclohexyl-2-(4-hydrazino-2-phenyl-quinolin-6-yl)-1H-benzoimidazole-5-carboxylic acid] | 92.9 | 100 |
| O=C(O)c1ccc2c(c1)nc(-c1ccc3nc(-c4ccccc4)cc(Sc4ccccc4)c3c1)n2C1CCCCC1 [Compound 467, 1-Cyclohexyl-2-(2-phenyl-4-phenylsulfanyl-quinolin-6-yl)-1H-benzoimidazole-5-carboxylic acid] | 96.3 | 100 |
| COc1ccc(-c2ccc(OC)cc2-c2ccc3cc(-c4nc5cc(C(=O)O)ccc5n4C4CCCCC4)ccc3n2)cc1 [Compound 468, 1-cyclohexyl-2-[2-(4,4′-dimethoxy-biphen-2-yl)-quinolin-6-yl]-1H-benzoimidazole-5-carboxylic acid] | 99.3 | 99.1 |
| COc1ccc(-c2ccc(O)cc2)c(-c2ccc3cc(-c4nc5cc(C(=O)O)ccc5n4C4CCCCC4)ccc3n2)c1 [Compound 469, 1-cyclohexyl-2-[2-(4′-hydroxy-4-methoxy-biphen-2-yl)-quinolin-6-yl]-1H-benzoimidazole-5-carboxylic acid] | 94.2 | 98.2 |
| COc1ccc(-c2cccs2)c(-c2ccc3cc(-c4nc5cc(C(=O)O)ccc5n4C4CCCCC4)ccc3n2)c1 [Compound 470, 1-cyclohexyl-2-[2-(5-methoxy-2-thiophen-2-yl-phenyl)-quinolin-6-yl]-1H-benzoimidazole-5-carboxylic acid] | 101 | 99.4 |
| Cc1cc(-c2ccccc2Br)nc2ccc(-c3nc4cc(C(=O)O)ccc4n3C3CCCCC3)cc12 [Compound 471, 2-[2-(2-Bromo-phenyl)-4-methyl-quinolin-6-yl]-1-cyclohexyl-1H-benzoimidazole-5-carboxylic acid] | 97.8 | 99.8 |
| Cc1cc(-c2ccc3cc(-c4nc5cc(C(=O)O)ccc5n4C4CCCCC4)ccc3n2)c(-c2ccccc2)s1 [Compound 472, 1-cyclohexyl-2-[2-(5-methyl-2-phenyl-thiophen-3-yl)-quinolin-6-yl]-1H-benzoimidazole-5-carboxylic acid] | 97.1 | 98.1 |
| O=C(O)c1ccc2c(c1)nc(-c1ccc3nc(-c4ccc(-n5ccnc5)cc4)ccc3c1)n2C1CCCCC1 [Compound 473, 1-cyclohexyl-2-[2-(4-imidazol-1-yl-phenyl)-quinolin-6-yl]-1H-benzoimidazole-5-carboxylic acid] | 99.2 | 97.4 |
| O=C(O)c1ccc2c(c1)nc(-c1ccc3nc(-c4cccc(O)c4)ccc3c1)n2C1CCCCC1 [Compound 474, 1-Cyclohexyl-2-[2-(3-hydroxy-phenyl)-quinolin-6-yl]-1H-benzoimidazole-5-carboxylic acid] | 97 | 101 |
| COCCOc1ccc(-c2ccc(Cl)cc2)c(-c2ccc3cc(-c4nc5cc(C(=O)O)ccc5n4C4CCCCC4)ccc3n2)c1 [Compound 475, 2-{2-[4′-Chloro-4-(2-methoxy-ethoxy)-biphen-2-yl]-quinolin-6-yl}-1-cyclohexyl-1H-benzoimidazole-5-carboxylic acid] | 97.5 | 95.9 |
| O=C(O)c1ccc2c(c1)nc(-c1ccc3nc(CCn4cccn4)ccc3c1)n2C1CCCCC1 [Compound 476, 1-cyclohexyl-2-[2-(2-pyrazol-1-yl-ethyl)-quinolin-6-yl]-1H-benzoimidazole-5-carboxylic acid] | 97.3 | 97.1 |
| O=C(O)c1cnc2c(c1)nc(-c1ccc3nc(-c4ccccc4Br)ccc3c1)n2C1CCCCC1 [Compound 477, 2-[2-(2-bromo-phenyl)-quinolin-6-yl]-3-cyclohexyl-3H-imidazo[4,5-b]pyridine-6-carboxylic acid] | 92.4 | 95.9 |
| O=C(O)c1ccc2c(c1)nc(-c1ccc3nc(-c4ccc5c(c4)CCO5)ccc3c1)n2C1CCCCC1 [Compound 478, 1-cyclohexyl-2-[2-(2,3-dihydro-benzofuran-5-yl)-quinolin-6-yl]-1H-benzoimidazole-5-carboxylic acid] | 95.8 | 97.2 |
| O=C(O)c1ccc2c(c1)nc(-c1ccc3nc(-c4cc(-c5ccc(Cl)c(Cl)c5)no4)ccc3c1)n2C1CCCCC1 [Compound 479, 1-cyclohexyl-2-{2-[3-(3,4-dichloro-phenyl)-isoxazol-5-yl]-quinolin-6-yl}-1H-benzoimidazole-5-carboxylic acid] | 99.6 | 102 |
| Nc1cc(-c2ccccc2)sc1-c1ccc2cc(-c3nc4cc(C(=O)O)ccc4n3C3CCCCC3)ccc2n1 [Compound 480, 2-[2-(3-amino-5-phenyl-thiophen-2-yl)-quinolin-6-yl]-1-cyclohexyl-1H-benzoimidazole-5-carboxylic acid] | 101 | 104 |
| CN(C)c1cc(-c2ccccc2)nc2ccc(-c3nc4cc(C(=O)O)ccc4n3C3CCCCC3)cc12 [Compound 481, 1-cyclohexyl-2-(4-dimethylamino-2-phenyl-quinolin-6-yl)-1H-benzoimidazole-5-carboxylic acid] | 76.5 | 96.7 |
| O=C(O)c1ccc2c(c1)nc(-c1ccc3nc(-c4cccc(Br)c4)ccc3c1)n2C1CCCCC1 [Compound 482, 2-[2-(3-bromo-phenyl)-quinolin-6-yl]-1-cyclohexyl-1H-benzoimidazole-5-carboxylic acid] | 100 | 101 |
| O=C(O)c1ccc2c(c1)nc(-c1ccc3nc(-c4cccc(-c5ccc(Cl)cc5)c4)ccc3c1)n2C1CCCCC1 [Compound 483, 2-[2-(4′-chloro-biphenyl-3-yl)-quinolin-6-yl]-1-cyclohexyl-1H-benzoimidazole-5-carboxylic acid] | 102 | 99.4 |
| COc1ccc(-c2cnc(OC)nc2OC)c(-c2ccc3cc(-c4nc5cc(C(=O)O)ccc5n4C4CCCCC4)ccc3n2)c1 [Compound 484, 1-cyclohexyl-2-{2-[2-(2,4-dimethoxy-pyrimidin-5-yl)-5-methoxy-phenyl]-quinolin-6-yl}-1H-benzoimidazole-5-carboxylic acid] | 99.6 | 98.3 |
| Cc1cc(-c2ccccc2-c2ccc(Cl)cc2)nc2ccc(-c3nc4cc(C(=O)O)ccc4n3C3CCCCC3)cc12 [Compound 485, 2-[2-(4′-Chloro-biphen-2-yl)-4-methyl-quinolin-6-yl]-1-cyclohexyl-1H-benzoimidazole-5-carboxylic acid] | 98.6 | 99.5 |

— patent US7511145B2 (Genelabs Technologies, Inc., priority 2003, dated 2009)
